According to US10617679B2, “Deuterated compounds and medical uses thereof” (JINGLUWEIDAI INFORMATION CONSULTING SERVICE (BEIJING) CO. …, priority 2016, dated 2020):

What was measured:
Wistar rats = assay: Evaluation of subacute toxicity (14 days, intragastric); format: in vivo; conditions: 40 mg/kg intragastric once a day for 14 days; for ALT / AST: rat
Description: Male Wistar rats were randomly divided into groups with 10 rats in each group and weighed. A certain concentration of a test sample was ground and suspended in a 0.5% sodium carboxymethyl cellulose solution. The sodium carboxymethyl cellulose suspension containing 40 mg/kg of the test compound and a blank sodium carboxymethyl cellulose suspension as a control were intragastrically administered, once a day for 14 consecutive days. After the last administration, the rats were fasted but had free access to drinking water for 12 hours, and then anesthetized. Their blood samples were obtained from the abdominal aortas. According to SOPB093 “Standard Operating Procedures for Serum Preparation” in National Beijing Center for Drug Safety Evaluation and Research, serum was prepared for the determination of blood biochemical and immunological indicators; according to SOPB032 “Preparation of vacuum tubes with EDTA anticoagulation”, EDTA anticoagulation was prepared for the general blood routine tests.

blood pressure in rats = assay: Effects on blood pressure in rats; format: in vivo, SD rats
Description: (§1) SD rats (male, weight 160-180 g) were fasted for 12 hours before administration but had free access to drinking water. The rats were randomly divided into groups. They were anesthetized with an intraperitoneal injection of 50-60 mg/kg dose of sodium pentobarbital. Each rat was fixed on the back on the surgical table. The skin was cut from the center of the neck, and an incision of about 2.5 cm was made. The subcutaneous tissue and the median muscle were separated; the trachea was fully exposed; and the endotracheal intubation was performed. The subcutaneous tissue was separated from front to back on the right side; the right common carotid artery, the vagus nerve and the sympathetic nerve were exposed; and the carotid artery cannulation was performed. Finally, the endotracheal tube and the carotid artery cannula were respectively connected to a respiration transducer and a blood pressure transducer, and then connected to a multifunctional physiological recorder. At 30 minutes after surgery, the rats were intragastrically administrated. Heart rate and blood pressure were measured at different time points after administration.

heart rate in rats = assay: Effects on heart rate in rats; format: in vivo, SD rats
Description: as §1

[1] = system: oxycodone-induced place preference in rats; assay: Inhibition of oxycodone-induced place preference in rats; format: in vivo, SD rats; conditions: day 10, within 15 minutes
Description: SD rats (male, weight 160-180 g) were placed in conditioned place preference (CPP) training boxes, where the partition door between the boxes was open. Time the rats spent in each of the boxes was recorded within 15 min in order to determine the natural tendency of the rats. The rats were then randomly divided into groups with 10 rats in each group according to the amount of time spent in the white box. The white box was a drug box, and the black box was a box with the absence of the drug. After intragastric administration with a test compound for 40 minutes, the rats were injected subcutaneously with oxycodone (2.5 mg/kg, s.c.) or saline, and immediately placed in the white box or the black box to be trained for 45 minutes, once a day for 9 consecutive days. On the 10th day, the rats were placed in the training boxes with the partition door open. The time the rats spent in the white box was recorded within 15 minutes to evaluate effects on place preference in the rats.

[2] = system: rat chronic sciatic nerve compression neuralgia model; assay: Analgesic effects of intragastric administration in a rat chronic sciatic nerve compression neuralgia model; format: in vivo, SD rats; conditions: pain threshold 1 hour after administration
Description: SD rats (male, weight 160-180 g) were anesthetized using sodium pentobarbital (40 mg/kg), of which the sciatic nerves were separated in the middle segment of the right hind limbs. In the anterior segment of the sciatic nerve to be bifurcated, the sciatic nerve was separated from the surrounding tissue using a sterile glass hook. Four rings were loosely ligated with sterile chrome gut (No. 4, 0.15 mm in diameter) by an interval of 1 to 2 mm. Topically sprinkled with penicillin powder. The muscle tissue and skin were sutured. The rats were placed in a cage with cork dust. In the sham surgery group, the sciatic nerve was only exposed, and the other treatments were the same as described above. The rats after surgery were placed in a metal cage. […] The weight of the filament was recorded and set to be the threshold (in g). Meanwhile, the number of foot-lifting response to the 10 stimulations of the fiber filaments of different weights was recorded, and the highest threshold was set at 26 g.
5-6 rats in each group were intragastrically administered and the pain thresholds were measured 1 hour after administration. Statistical analysis of the thresholds was performed using non-parametric Wilcoxon 2-Sample Test and Kruskal-Wallis Test, and the data was analyzed with SASS data processing software. Analgesic percent (%)=(pain threshold after drug treatment−pain threshold before drug treatment)/(maximal analgesia threshold−pain threshold before drug treatment)[…].

rat formalin model = assay: Analgesic effects of intragastric administration in a rat formalin model; format: in vivo, SD rats; conditions: mean ± SD; for Reaction time for phase I: licking time 0-5 min after formalin; for Reaction time for Phase II: licking time 15-30 min after formalin
Description: SD rats (male, weight 160-180 g) were randomly divided into groups with 6 rats in each group. After the rats were intragastrically administered different doses separately, they were placed in PVC observation boxes for habituation. After 30 min, the rats were injected subcutaneously with 20 μL of 2.7% formalin solution into the plantar surface of the left hind paws, and quickly put back in the PVC observation boxes for observation. The length of time the rats spent licking the injected-formalin paws at the early response (0-5 min, phase I) and the late response (15-30 min, Phase II) was recorded, and the analgesic activities of the test compounds were evaluated according to the length of time the rats spent licking during the period of observation. The experimental data were expressed as mean±standard deviation. The shorter the licking time, the better the analgesic effect of the compound.

[3] = 20 mg/kg intragastric, time point 0
[4] = 20 mg/kg intragastric, time point 30
[5] = 20 mg/kg intragastric, time point 60
[6] = 20 mg/kg intragastric, time point 90
[7] = 20 mg/kg intragastric, time point 120
[8] = 20 mg/kg intragastric, time point 180
[9] = 40 mg/kg intragastric, time point 0
[10] = 40 mg/kg intragastric, time point 30
[11] = 40 mg/kg intragastric, time point 60
[12] = 40 mg/kg intragastric, time point 90
[13] = 40 mg/kg intragastric, time point 120
[14] = 40 mg/kg intragastric, time point 180
[15] = test dose 10 mg/kg intragastric + oxycodone 2.5 mg/kg s.c.
[16] = test dose 20 mg/kg intragastric + oxycodone 2.5 mg/kg s.c.

Row | Structure (SMILES) | ALT (Wistar rats) [U/L] | AST (Wistar rats) [U/L] | plasma ALT and AST versus control group (Wistar rats; result in words) | Blood pressure (blood pressure in rats; [3]) [mmHg] | Blood pressure (blood pressure in rats; [4]) [mmHg] | Blood pressure (blood pressure in rats; [5]) [mmHg] | Blood pressure (blood pressure in rats; [6]) [mmHg] | Blood pressure (blood pressure in rats; [7]) [mmHg] | Blood pressure (blood pressure in rats; [8]) [mmHg] | Blood pressure (blood pressure in rats; [9]) [mmHg] | Blood pressure (blood pressure in rats; [11]) [mmHg] | Blood pressure (blood pressure in rats; [12]) [mmHg] | Blood pressure (blood pressure in rats; [13]) [mmHg] | Blood pressure (blood pressure in rats; [14]) [mmHg] | Heart rate (heart rate in rats; [3]) [BTM] | Heart rate (heart rate in rats; [4]) [BTM] | Heart rate (heart rate in rats; [5]) [BTM] | Heart rate (heart rate in rats; [6]) [BTM] | Heart rate (heart rate in rats; [7]) [BTM] | Heart rate (heart rate in rats; [8]) [BTM] | further results
1 | COc1cc2c(cc1OC)[C@@H]1Cc3ccc(OC)c(OC)c3CN1CC2 [THP, L-tetrahydropalmatine, reference compound] | 160.0 ± 70.6 | 216.8 ± 91.6 | significant increase | 111.5 ± 11.5 | 109.4 ± 20.6 | 105.00 ± 28.21 | 105.1 ± 20.0 | 112.7 ± 19.3 | 113.3 ± 18.3 | 114.2 ± 14.6 | 81.63 ± 28.8 | 79.00 ± 28.2 | 91.6 ± 24.7 | 97.3 ± 14.5 | 399.3 ± 32.6 | 377.1 ± 52.3 | 387.3 ± 50.5 | 399.8 ± 60.7 | 408.8 ± 55.9 | 429.8 ± 25.5 | histopathological examination of liver (Wistar rats; result in words): vacuolar degeneration of hepatocytes; Blood pressure (blood pressure in rats; [10]): 98.0 ± 30.1 mmHg; Heart rate (heart rate in rats; [9]): 391.8 ± 32.9 BTM; Heart rate (heart rate in rats; [10]): 372.1 ± 46.5 BTM; Heart rate (heart rate in rats; [11]): 329.0 ± 63.2 BTM; Heart rate (heart rate in rats; [12]): 340.0 ± 71.4 BTM; Heart rate (heart rate in rats; [13]): 372.0 ± 64.6 BTM; Heart rate (heart rate in rats; [14]): 400.0 ± 30.5 BTM; Time spent in the drug box (Mean ± S) [1, 15]: 253.23 ± 77.14 s; Time spent in the drug box (Mean ± S) [1, 16]: 157.04 ± 60.6 s; Analgesic percent ([2]; 20 mg/kg intragastric): 27.41%; Analgesic percent ([2]; 40 mg/kg intragastric): 68.36%; Reaction time for phase I (rat formalin model; 20 mg/kg intragastric): 86.8 ± 37.3 s; Reaction time for Phase II (rat formalin model; 20 mg/kg intragastric): 185.2 ± 39.7 s; Reaction time for phase I (rat formalin model; 40 mg/kg intragastric): 40.6 ± 28.3 s; Reaction time for Phase II (rat formalin model; 40 mg/kg intragastric): 97.5 ± 33.6 s
2 | [2H]C([2H])([2H])Oc1cc2c(cc1OC([2H])([2H])[2H])[C@@H]1Cc3ccc(OC([2H])([2H])[2H])c(OC([2H])([2H])[2H])c3CN1CC2 [Formula I7, (13a S)-2,3,9,10-tetra-[(trideutero)-methoxy]-6,8,13,13a-tetrahydro-5H-isoquinolino[2,1-b]isoquinoline] | 84.5 ± 20.6 | 143.8 ± 21.0 | no significant difference | 112.6 ± 27.5 | 103.4 ± 11.7 | 104.2 ± 9.8 | 102.6 ± 7.2 | 114.1 ± 11.3 | 135.3 ± 15.6 | 113.0 ± 11.4 | 83.5 ± 7.2 | 82.6 ± 6.5 | 95.3 ± 9.5 | 101.8 ± 8.1 | 401.5 ± 32.1 | 380.8 ± 33.4 | 389.5 ± 26.6 | 405.3 ± 31.0 | 391.0 ± 24.9 | 398.5 ± 28.8 | Heart rate (heart rate in rats; [9]): 407.9 ± 29.5 BTM; Heart rate (heart rate in rats; [10]): 366.8 ± 27.7 BTM; Heart rate (heart rate in rats; [11]): 332.6 ± 24.9 BTM; Heart rate (heart rate in rats; [12]): 343.2 ± 21.0 BTM; Heart rate (heart rate in rats; [13]): 356.7 ± 25.8 BTM; Heart rate (heart rate in rats; [14]): 362.0 ± 32.1 BTM; Time spent in the drug box (Mean ± S) [1, 15]: 154.32 ± 21.38 s; Time spent in the drug box (Mean ± S) [1, 16]: 135.40 ± 25.09 s; Analgesic percent ([2]; 20 mg/kg intragastric): 70.67%; Analgesic percent ([2]; 40 mg/kg intragastric): 73.53%; Reaction time for phase I (rat formalin model; 20 mg/kg intragastric): 45.2 ± 9.9 s; Reaction time for Phase II (rat formalin model; 20 mg/kg intragastric): 58.2 ± 12.5 s; Reaction time for phase I (rat formalin model; 40 mg/kg intragastric): 35.7 ± 9.0 s; Reaction time for Phase II (rat formalin model; 40 mg/kg intragastric): 35.9 ± 13.6 s
